Source: patent US8318724B2, “Small molecule inhibitors of MRP1 and other multidrug transporters” (The Cleveland Clinic Foundation, priority 2004, dated 2012)

How the values were obtained:
MDR3 = experiment: Sensitization to doxorubicin of cells expressing multidrug transporter MDR3; assay type: cell-based; settings: ratio of LD50
Description: (§1) Fold of sensitization is calculated as a ratio of LD50 in the presence and in the absence of the inhibitor compound (see FIG. 6).
(§2) Fold of sensitization again is calculated as the ratio of LD50 in the presence and in the absence of the inhibitor compound (see FIG. 6).

MRP2 = MRP2 (Homo sapiens, UniProt Q92887); experiment: Sensitization to doxorubicin of cells expressing multidrug transporter MRP2; assay type: cell-based; settings: ratio of LD50
Description: as §1, §2

MDR1 = MDR1 (Homo sapiens, UniProt P08183)
Description: as §1, §2

MCF7/VP cells = experiment: Sensitization of MRP1-expressing MCF7/VP cells to chemotherapeutic drugs (methylene blue assay); assay type: cell-based; settings: for folds of sensitization of MCF7/VP cells to cisplatin: cisplatin is not an MRP1 substrate; for folds of sensitization of MCF7/VP cells to doxorubicin / folds of sensitization of MCF7/VP cells to etoposide / folds of sensitization of MCF7/VP cells to vincristine: ratio of LD50 in the presence and in the absence of the compound
Description: Cells in 96-well plates (5×10^3 per well) were incubated with different concentrations of vincristine in the presence of 5 μM of the candidate compounds for 3 days. Cell numbers then were estimated using methylene blue assay. […] Verapamil (10 μM) was used as control.
FIG. 6 illustrates the effect of the identified inhibitor compounds on cell sensitivity to doxorubicin and vincristine. Cells (with or without MRP1 expression) were incubated 24 hours with the indicated concentrations of vincristine or doxorubicin followed by incubation for additional 48 hours in drugfree media. Cell numbers were quantified by standard methylene blue assay.
as §1
FIG. 8 illustrates the effects of the identified inhibitor compounds on sensitivity of MRP1-positive and MRP1-negative cells to vincristine. Fold of sensitization again is calculated as the ratio of LD50 in the presence and in the absence of the inhibitor compound (see FIG. 6).
FIG. 9 illustrates the effects of the identified inhibitor compounds on sensitivity of MRP1-positive and MRP1-negative cells to etoposide. Fold of sensitization again is calculated as the ratio of LD50 in the presence and in the absence of the inhibitor compound (see FIG. 6).
FIG. 10 illustrates the effects of the identified inhibitor compounds on sensitivity of MRP1-positive and MRP1-negative cells to taxol and cisplatin. Fold of sensitization again is calculated as the ratio of LD50 in the presence and in the absence of the inhibitor compound (see FIG. 6).

MRP1 [1] = target: T1, MRP1 (Homo sapiens, UniProt P33527); experiment: Sensitization to doxorubicin of cells expressing multidrug transporter MRP1; assay type: cell-based; settings: ratio of LD50
T1 construct: MCF7/VP breast cancer cells (24), which have amplified and overexpressed MRP1, but negligible Pgp expression; endogenous in cells; host or cells: MCF7/VP (MCF7/VP clone 14) breast cancer cells
Description: as §1, §2

[2] = In vivo toxicity, mouse weight after single i.p. injection (FIG. 19); settings: up to 100 mg/kg
Excerpt: In particular, one parameter for testing toxicity is a weight loss of greater the […] of the body weight of a test mouse.

NB = experiment: In vivo efficacy in mouse model of NB in combination with chemotherapeutic agents (FIG. 20)
Excerpt: The test was a clinically relevant mouse model of NB that closely reflects the human disease (n=10, unless otherwise noted).

NB cells = experiment: Direct toxicity toward NB cell lines (FIG. 18); assay type: cell-based; settings: different lots of compound
MRP1 [3] = target: T1, MRP1; experiment: Daunorubicin retention / efflux assay (FIG. 12); assay type: cell-based; settings: daunorubicin 2 hours with compound, then 1 hour drug-free medium; retained daunorubicin
Description: FIG. 12 classifies the identified inhibitor compounds according to their strength as inhibitors of […] by MRP1. Cells were treated with daunorubicin in the presence of a test compound or a control for 2 hours, followed by incubation in fresh drug-free medium for 1 hour. Retained daunorubicin levels were measured to determine the effect of the inhibitor compounds on efflux activities.

MRP1 [4] = target: T1, MRP1; experiment: Dose dependence of drug sensitization effect, 4H10 vs MK571 (FIG. 14); assay type: cell-based; settings: three different lots of 4H10
GL15 and 8 MG cell lines = settings: both glioma cell lines; cited from earlier work

T1 sequence (P33527 whole entry): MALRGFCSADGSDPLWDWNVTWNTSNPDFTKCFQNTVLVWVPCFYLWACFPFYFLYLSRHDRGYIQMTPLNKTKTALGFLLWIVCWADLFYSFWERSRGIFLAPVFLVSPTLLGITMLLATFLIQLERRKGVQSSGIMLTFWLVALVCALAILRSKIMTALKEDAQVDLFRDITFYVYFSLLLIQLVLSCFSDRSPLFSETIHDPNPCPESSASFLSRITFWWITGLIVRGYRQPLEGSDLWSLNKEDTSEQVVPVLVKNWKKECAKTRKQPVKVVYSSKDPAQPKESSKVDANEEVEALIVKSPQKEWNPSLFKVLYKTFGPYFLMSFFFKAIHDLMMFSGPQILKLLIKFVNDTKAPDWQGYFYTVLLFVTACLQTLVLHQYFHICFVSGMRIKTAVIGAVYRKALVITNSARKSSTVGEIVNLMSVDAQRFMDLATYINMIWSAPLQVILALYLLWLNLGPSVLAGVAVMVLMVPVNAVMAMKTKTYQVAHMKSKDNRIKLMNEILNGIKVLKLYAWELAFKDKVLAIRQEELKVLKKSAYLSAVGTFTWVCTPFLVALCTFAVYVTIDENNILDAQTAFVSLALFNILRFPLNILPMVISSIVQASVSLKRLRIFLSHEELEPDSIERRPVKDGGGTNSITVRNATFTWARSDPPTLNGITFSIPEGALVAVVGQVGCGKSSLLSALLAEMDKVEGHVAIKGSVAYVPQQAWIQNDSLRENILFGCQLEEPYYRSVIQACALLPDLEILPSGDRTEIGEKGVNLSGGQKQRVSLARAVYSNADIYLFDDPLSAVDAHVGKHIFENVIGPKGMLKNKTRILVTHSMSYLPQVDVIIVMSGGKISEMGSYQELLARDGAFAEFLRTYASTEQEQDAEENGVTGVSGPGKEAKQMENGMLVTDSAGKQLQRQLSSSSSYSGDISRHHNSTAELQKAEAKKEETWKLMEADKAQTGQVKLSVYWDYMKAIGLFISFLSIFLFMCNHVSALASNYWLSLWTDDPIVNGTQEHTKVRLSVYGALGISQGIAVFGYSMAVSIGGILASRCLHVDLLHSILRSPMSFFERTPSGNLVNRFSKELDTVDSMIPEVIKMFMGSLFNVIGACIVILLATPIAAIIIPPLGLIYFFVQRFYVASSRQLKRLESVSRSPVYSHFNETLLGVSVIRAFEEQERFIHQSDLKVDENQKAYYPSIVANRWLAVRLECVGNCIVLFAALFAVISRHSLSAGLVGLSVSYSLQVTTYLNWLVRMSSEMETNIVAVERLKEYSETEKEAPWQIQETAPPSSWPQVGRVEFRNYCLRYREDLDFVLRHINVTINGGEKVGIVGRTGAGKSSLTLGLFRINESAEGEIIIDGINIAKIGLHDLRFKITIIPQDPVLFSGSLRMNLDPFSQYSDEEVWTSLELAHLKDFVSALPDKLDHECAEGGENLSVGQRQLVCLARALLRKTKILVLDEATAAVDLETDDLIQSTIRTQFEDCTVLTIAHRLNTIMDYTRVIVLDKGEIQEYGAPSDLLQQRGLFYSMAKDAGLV
Chain of MRP2 (Q92887 whole entry, species assumed): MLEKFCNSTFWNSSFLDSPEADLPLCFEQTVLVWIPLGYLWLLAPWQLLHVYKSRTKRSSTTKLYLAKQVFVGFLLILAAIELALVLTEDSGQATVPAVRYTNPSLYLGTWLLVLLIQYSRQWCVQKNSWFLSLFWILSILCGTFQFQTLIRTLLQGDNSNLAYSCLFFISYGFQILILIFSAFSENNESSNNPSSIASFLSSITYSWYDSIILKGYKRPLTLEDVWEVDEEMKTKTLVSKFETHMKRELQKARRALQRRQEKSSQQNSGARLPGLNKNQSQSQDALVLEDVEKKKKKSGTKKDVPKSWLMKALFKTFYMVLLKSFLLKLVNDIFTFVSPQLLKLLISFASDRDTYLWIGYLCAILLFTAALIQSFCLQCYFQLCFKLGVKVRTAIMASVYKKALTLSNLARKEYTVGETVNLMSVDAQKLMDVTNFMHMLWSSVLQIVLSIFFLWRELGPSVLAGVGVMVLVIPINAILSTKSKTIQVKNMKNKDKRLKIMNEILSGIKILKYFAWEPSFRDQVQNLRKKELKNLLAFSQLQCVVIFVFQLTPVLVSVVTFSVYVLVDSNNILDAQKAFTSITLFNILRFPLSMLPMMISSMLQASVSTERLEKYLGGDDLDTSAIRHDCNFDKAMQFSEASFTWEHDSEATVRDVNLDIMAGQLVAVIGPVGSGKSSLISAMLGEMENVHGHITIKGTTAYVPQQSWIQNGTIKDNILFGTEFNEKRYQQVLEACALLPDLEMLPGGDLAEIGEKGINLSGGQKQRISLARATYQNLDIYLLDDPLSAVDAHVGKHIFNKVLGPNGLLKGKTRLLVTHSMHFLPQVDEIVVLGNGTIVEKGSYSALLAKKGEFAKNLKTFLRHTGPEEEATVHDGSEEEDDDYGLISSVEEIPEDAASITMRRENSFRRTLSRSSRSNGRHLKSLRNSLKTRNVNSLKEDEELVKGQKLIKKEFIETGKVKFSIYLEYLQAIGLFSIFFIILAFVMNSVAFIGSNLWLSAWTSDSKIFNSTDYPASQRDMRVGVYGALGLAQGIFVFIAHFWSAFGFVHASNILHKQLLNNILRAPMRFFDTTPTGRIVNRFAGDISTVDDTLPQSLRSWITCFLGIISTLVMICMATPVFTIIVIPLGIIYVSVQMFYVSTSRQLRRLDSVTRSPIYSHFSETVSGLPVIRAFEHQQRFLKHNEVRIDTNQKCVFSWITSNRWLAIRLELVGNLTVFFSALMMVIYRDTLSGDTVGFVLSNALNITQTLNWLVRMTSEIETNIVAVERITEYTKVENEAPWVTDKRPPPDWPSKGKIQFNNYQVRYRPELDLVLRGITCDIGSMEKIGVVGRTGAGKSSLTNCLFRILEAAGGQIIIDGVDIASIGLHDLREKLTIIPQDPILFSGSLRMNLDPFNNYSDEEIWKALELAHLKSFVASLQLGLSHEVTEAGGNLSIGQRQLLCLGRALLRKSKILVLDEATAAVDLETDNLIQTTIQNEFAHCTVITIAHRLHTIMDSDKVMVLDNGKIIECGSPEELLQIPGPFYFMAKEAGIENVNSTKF
Chain of MDR1 (P08183 whole entry): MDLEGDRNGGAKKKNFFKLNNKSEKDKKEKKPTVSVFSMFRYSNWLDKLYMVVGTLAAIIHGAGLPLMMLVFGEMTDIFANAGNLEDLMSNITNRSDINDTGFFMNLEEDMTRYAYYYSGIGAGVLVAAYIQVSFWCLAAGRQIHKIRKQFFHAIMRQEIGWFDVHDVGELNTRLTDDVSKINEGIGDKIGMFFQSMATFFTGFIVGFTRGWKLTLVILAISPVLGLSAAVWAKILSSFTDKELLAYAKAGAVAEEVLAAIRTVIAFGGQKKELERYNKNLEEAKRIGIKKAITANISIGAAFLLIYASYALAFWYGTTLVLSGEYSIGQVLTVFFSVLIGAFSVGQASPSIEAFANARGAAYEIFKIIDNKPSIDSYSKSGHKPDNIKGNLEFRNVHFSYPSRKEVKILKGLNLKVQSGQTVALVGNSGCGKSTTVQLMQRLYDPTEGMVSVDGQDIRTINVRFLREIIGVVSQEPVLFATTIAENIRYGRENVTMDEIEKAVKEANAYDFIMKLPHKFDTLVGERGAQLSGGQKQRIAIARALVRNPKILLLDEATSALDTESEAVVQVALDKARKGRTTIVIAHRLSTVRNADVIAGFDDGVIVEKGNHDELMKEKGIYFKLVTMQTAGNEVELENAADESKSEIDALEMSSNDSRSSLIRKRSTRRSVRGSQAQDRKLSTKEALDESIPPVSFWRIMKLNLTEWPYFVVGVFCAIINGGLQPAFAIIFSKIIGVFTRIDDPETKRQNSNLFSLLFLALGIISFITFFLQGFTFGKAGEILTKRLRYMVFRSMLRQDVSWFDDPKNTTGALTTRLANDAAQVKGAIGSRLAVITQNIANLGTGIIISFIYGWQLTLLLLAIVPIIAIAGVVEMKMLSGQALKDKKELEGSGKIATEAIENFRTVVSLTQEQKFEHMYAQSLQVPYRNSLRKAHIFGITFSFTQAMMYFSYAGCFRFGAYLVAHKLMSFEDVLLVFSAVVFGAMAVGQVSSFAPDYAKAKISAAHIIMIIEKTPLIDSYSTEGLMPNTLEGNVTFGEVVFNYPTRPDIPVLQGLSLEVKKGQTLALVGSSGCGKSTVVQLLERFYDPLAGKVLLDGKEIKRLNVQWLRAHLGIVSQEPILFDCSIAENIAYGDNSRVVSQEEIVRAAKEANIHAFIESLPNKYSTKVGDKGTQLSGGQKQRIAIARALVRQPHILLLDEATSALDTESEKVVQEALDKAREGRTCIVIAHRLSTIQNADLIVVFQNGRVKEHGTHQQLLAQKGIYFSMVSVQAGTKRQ

## CCN(CC)CCCNC(=O)c1cnn2c(C(F)(F)F)cc(-c3ccc(C)cc3)nc12 [Compound 4E10]
MDR3
  folds of sensitization of doxorubicin, cells expressing MDR3: 0.6 folds
MRP2
  folds of sensitization of doxorubicin, cells expressing MRP2: 7 folds
MDR1
  folds of sensitization of doxorubicin, cells expressing MDR1: 2.0 folds
MCF7/VP cells
  folds of sensitization of MCF7/VP cells to cisplatin: 1.25 folds
  folds of sensitization of MCF7/VP cells to doxorubicin: 3.2 folds
  folds of sensitization of MCF7/VP cells to etoposide: 27 folds
  folds of sensitization of MCF7/VP cells to vincristine: 12 folds
MRP1 [1]
  folds of sensitization of doxorubicin, cells expressing MRP1: 3.7 folds

## O=C(NCCN1CCOCC1)c1cnn2c(-c3ccccc3)cc(-c3ccccc3)nc12 [Compound 4E11]
MDR3
  folds of sensitization of doxorubicin, cells expressing MDR3: 0.7 folds
MRP2
  folds of sensitization of doxorubicin, cells expressing MRP2: 6.5 folds
MDR1
  folds of sensitization of doxorubicin, cells expressing MDR1: 4.2 folds
MCF7/VP cells
  folds of sensitization of MCF7/VP cells to cisplatin: 1.1 folds
  folds of sensitization of MCF7/VP cells to doxorubicin: 2.7 folds
  folds of sensitization of MCF7/VP cells to etoposide: 34 folds
  folds of sensitization of MCF7/VP cells to vincristine: 10.5 folds
MRP1 [1]
  folds of sensitization of doxorubicin, cells expressing MRP1: 3.9 folds

## CC(Sc1nnc(-c2ccco2)n1-c1ccccc1)C(=O)NC(c1ccccc1)c1ccccc1 (stereo not shown) [Compound 4G05]
MDR3
  folds of sensitization of doxorubicin, cells expressing MDR3: 2.4 folds
MRP2
  folds of sensitization of doxorubicin, cells expressing MRP2: 1.5 folds
MDR1
  folds of sensitization of doxorubicin, cells expressing MDR1: 4.6 folds
MCF7/VP cells
  folds of sensitization of MCF7/VP cells to cisplatin: 1.1 folds
  folds of sensitization of MCF7/VP cells to doxorubicin: 1.6 folds
  folds of sensitization of MCF7/VP cells to etoposide: 2 folds
  folds of sensitization of MCF7/VP cells to vincristine: 3 folds
MRP1 [1]
  folds of sensitization of doxorubicin, cells expressing MRP1: 1.75 folds

## O=C(NCCCN1CCOCC1)c1cnn2c(-c3ccccc3)cc(-c3ccccc3)nc12 [Compound 4H10]
[2]; 30 days
  effect on mouse weight: did not adversely affect mouse weight
[2]; 30 days of observation
  in vivo toxicity: lack of in vivo toxicity
MDR3
  folds of sensitization of doxorubicin, cells expressing MDR3: 0.9 folds
MRP2
  folds of sensitization of doxorubicin, cells expressing MRP2: 3.3 folds
MDR1
  folds of sensitization of doxorubicin, cells expressing MDR1: 4.5 folds
MCF7/VP cells
  folds of sensitization of MCF7/VP cells to cisplatin: 1.2 folds
  folds of sensitization of MCF7/VP cells to doxorubicin: 3.8 folds
  folds of sensitization of MCF7/VP cells to etoposide: 58 folds
  folds of sensitization of MCF7/VP cells to vincristine: 14.2 folds
NB
  effectiveness compared with BSO: much more effective than BSO
NB cells
  direct toxicity against NB cells: no direct toxicity
MRP1 [3]
  strength as inhibitor of daunorubicin efflux by MRP1: most potent inhibitor
MRP1 [4]
  concentrations showing drug sensitization effect: submicromolar
MRP1 [1]
  folds of sensitization of doxorubicin, cells expressing MRP1: 4.1 folds

## C=CCSc1nnc2n(-c3ccccc3)c(=O)c3c4c(sc3n12)CCC4 [Compound 9C06]
MDR3
  folds of sensitization of doxorubicin, cells expressing MDR3: 0.4 folds
MRP2
  folds of sensitization of doxorubicin, cells expressing MRP2: 4.3 folds
MDR1
  folds of sensitization of doxorubicin, cells expressing MDR1: 3.7 folds
MCF7/VP cells
  folds of sensitization of MCF7/VP cells to cisplatin: 1.5 folds
  folds of sensitization of MCF7/VP cells to doxorubicin: 3.3 folds
  folds of sensitization of MCF7/VP cells to etoposide: 12 folds
  folds of sensitization of MCF7/VP cells to vincristine: 16 folds
MRP1 [1]
  folds of sensitization of doxorubicin, cells expressing MRP1: 3.3 folds

## c1ccc(-c2cn3c4ccccc4nc3n2CCN2CCCCC2)cc1 [Compound 14C08]
MDR3
  folds of sensitization of doxorubicin, cells expressing MDR3: 0.6 folds
MRP2
  folds of sensitization of doxorubicin, cells expressing MRP2: 1.3 folds
MDR1
  folds of sensitization of doxorubicin, cells expressing MDR1: 3.7 folds
MCF7/VP cells
  folds of sensitization of MCF7/VP cells to cisplatin: 1.05 folds
  folds of sensitization of MCF7/VP cells to doxorubicin: 4.0 folds
  folds of sensitization of MCF7/VP cells to etoposide: 18 folds
  folds of sensitization of MCF7/VP cells to vincristine: 14 folds
MRP1 [1]
  folds of sensitization of doxorubicin, cells expressing MRP1: 3.0 folds

## Cc1nnc(SCC(=O)N/N=C/c2cccc3cccnc23)n1-c1ccccc1 [Compound 17A08]
MDR3
  folds of sensitization of doxorubicin, cells expressing MDR3: 1.3 folds
MRP2
  folds of sensitization of doxorubicin, cells expressing MRP2: 1.4 folds
MDR1
  folds of sensitization of doxorubicin, cells expressing MDR1: 2 folds
MCF7/VP cells
  folds of sensitization of MCF7/VP cells to cisplatin: 1.1 folds
  folds of sensitization of MCF7/VP cells to doxorubicin: 3.6 folds
  folds of sensitization of MCF7/VP cells to etoposide: 5 folds
  folds of sensitization of MCF7/VP cells to vincristine: 3 folds
MRP1 [1]
  folds of sensitization of doxorubicin, cells expressing MRP1: 1.1 folds

## COc1ccc2c(c1)c(CC(=O)O)c(C)n2C(=O)c1ccc(Cl)cc1 [Indomethacin]
GL15 and 8 MG cell lines
  accumulation of vincristine and etoposide: increased the accumulation

## CCCN(CCC)S(=O)(=O)c1ccc(C(=O)O)cc1 [probenecid]
GL15 and 8 MG cell lines
  accumulation of vincristine and etoposide: increased the accumulation
